Experiment: in vitro
Settings: human, hela cells, % viability

| Compound | viability at 28.5 h, 10 µM |
| --- | --- |
| CN(C)c1ccc(/C=C2/C(=N)N3N=C(c4ccccc4Cl)SC3=NC2=O)cc1 [CBK097554] | 94.6% |
| COc1cc(OC)cc(C(=O)Nc2cccc(-c3nc4ccccc4o3)c2)c1 [CBK097706] | 95.5% |
| O=S(=O)(Nc1nc2c(s1)CCCC2)c1ccc(Br)cc1 [CBK097787] | 89.7% |
| CCN(CC)c1ccc(NC(=O)c2cccc(OC)c2OC)c(C)c1 [CBK097801] | 92.2% |
| CCCCOc1ccc2c(C(F)(F)F)cc(=O)oc2c1 [CBK097821] | 104% |
| Cc1cccc(S(=O)(=O)N2CCN(C)CC2)c1 [CBK097893] | 93.6% |
| O=S(=O)(c1cc(Cl)ccc1Cl)N1CCSC1 [CBK097980] | 99.4% |
| Cc1csc2nc(-c3ccccc3)cn12 [CBK098072] | 108% |
| CCOC(=O)c1cnn(-c2cc(Oc3ccccc3)ncn2)c1N [CBK098284] | 105% |
| N#CC1CCCc2c1[nH]c1ccccc21 (stereo not drawn) [CBK098397] | 74.9% |
| CCOC(=O)c1cnc(SCc2nc(N)nc(Nc3ccc(F)cc3)n2)nc1N [CBK098477] | 82.3% |
| COC(=O)c1cnn(-c2cc(Oc3ccccc3C)ncn2)c1N [CBK098668] | 102% |
| COc1cc(OC)cc(C(=O)Nc2ccc(C(=O)c3ccccc3)cc2)c1 [CBK098732] | 106% |
| CCc1ccc(C2CC(=O)c3c(ccc4ccccc34)N2)cc1 (stereo not drawn) [CBK098787] | 93.8% |
| CCCOc1c(Cl)cc(/C=C2\N=C(c3ccc(OC)cc3)OC2=O)cc1OCC [CBK098846] | 93.3% |
| CCN1C(=O)C(F)(CC)C(=O)c2ccccc21 (stereo not drawn) [CBK098854] | 107% |
| O=c1[nH]c2ccccc2n1C1CCN(CCOC(c2ccc(F)cc2)c2ccc(F)cc2)CC1 [CBK099807G] | 101% |
| COc1cc(OC)cc(C(=O)Nc2nnc(C(F)(F)F)s2)c1 [CBK099828] | 88.7% |
| Cc1ccc(-c2csc3ncn(Cc4ccccc4C)c(=O)c23)cc1C [CBK099921] | 104% |
| O=C(Nc1ccc(-c2ccccc2C(F)(F)F)s1)C(F)(F)F [CBK099942] | 96.3% |
| OCCn1c(S)nnc1-c1ccccc1 [CBK100025] | 85.4% |
| CCN1CCN(S(=O)(=O)c2ccc(Br)cc2)CC1 [CBK100197] | 99.7% |

| Compound | viability at 28.5 h, 10 µM |
| --- | --- |
| CCN1CCN(S(=O)(=O)c2ccccc2F)CC1 [CBK100558] | 104% |
| Nc1ncc2cc(C(F)(F)F)ccc2n1 [CBK100705] | 107% |
| CC(=O)c1cc2c(N)c(C(N)=O)sc2nc1C [CBK100769] | 102% |
| CCOC(=O)c1cc2c3ccccc3n(CC)c2nc1N [CBK100822] | 94% |
| CC(=O)NCC(=O)N(c1ccccc1)C1(C(=O)NC(c2ccccc2)c2ccccc2)CCCC1 [CBK100884] | 102% |
| O=C(O)c1cc(Br)cc2c3c([nH]c12)CCCC3 [CBK100973] | 99.7% |
| N=C1NC(=O)/C(=C/c2ccc(O)c(Cl)c2)S1 [CBK100992] | 109% |
| O=C(O)c1cccc2c1C(=O)N(c1ccccc1)C2 [CBK101054] | 91.4% |
| COc1ccc(-n2nnnc2SCc2ccc(Cl)cc2)cc1 [CBK101068] | 60.7% |
| CCN(CC)CCNC(=O)C1CCCCN1S(=O)(=O)c1ccc(C)cc1 (stereo not drawn) [CBK101088] | 89.9% |
| COc1cc(C(=O)Nc2cc(-c3nc4ncccc4o3)ccc2C)cc(OC)c1OC [CBK101133] | 97% |
| CCn1c2ccccc2c2cc(/C=N/N3CCN(c4ccccc4OC)CC3)ccc21 [CBK101168] | 92.6% |
| COc1ccccc1N(CC(=O)NC(C(C)C)C(C)C)S(=O)(=O)c1ccccc1 [CBK101384] | 91.4% |
| O=C1NCCc2c1[nH]c1ccccc21 [CBK101624] | 65.5% |
| C=CCn1c(SCC(=O)Nc2ccc(C(=O)OC)cc2)nnc1-c1ccc(Br)cc1 [CBK101797] | 92.8% |
| CCC1=NN2C(=N)/C(=C/c3ccc(OC)cc3)C(=O)N=C2S1 [CBK101905] | 95.6% |
| COc1cc(/C=C2\NC(=S)NC2=O)c(Cl)cc1O [CBK102003] | 65.5% |
| CC1CCN(S(=O)(=O)c2cccs2)CC1 [CBK102093] | 118% |
| CCOc1cc(/C=C2\N=C(c3ccc(OC)cc3)OC2=O)cc(Br)c1OCC(=O)OC [CBK102552] | 96.3% |
| O=C(Nc1nc(-c2cccc([N+](=O)[O-])c2)cs1)c1ccc(S(=O)(=O)N2CCCC2)cc1 [CBK102813] | 86.5% |
| O=C1S/C(=C\c2ccc(O)c([N+](=O)[O-])c2)C(=O)N1Cc1ccc(F)cc1 [CBK102928] | 94.9% |
| O=C1S/C(=C\c2ccc(O)c([N+](=O)[O-])c2)C(=O)N1Cc1ccc(Cl)cc1 [CBK102929] | 87.2% |

| Compound | viability at 28.5 h, 10 µM |
| --- | --- |
| COc1ccc([N+](=O)[O-])cc1NC(=O)c1nc(C)c(C)nc1C(=O)O [CBK103387] | 82.6% |
| c1cc(-c2ccc(OC3CCNCC3)cc2)c2cccnc2c1 [CBK103528T] | 92.7% |
| CCOC(=O)Cn1[nH]c(COC(C)(C)C)c(Cc2c(Cl)cccc2Cl)c1=O [CBK103551] | 114% |
| Cc1ccccc1NS(=O)(=O)c1cc(CN2C[C@@H](C)NC[C@@H]2C)c2occc2c1 [CBK103579T] | 102% |
| CCOC(=O)Cn1[nH]c(CO)c(Cc2c(Cl)cccc2Cl)c1=O [CBK103580] | 92.2% |
| CC(C)Nc1nccnc1SCc1ccc(Cl)c(Cl)c1 [CBK103657] | 89.8% |
| CC(C)Nc1cc(SCc2ccc(Cl)c(Cl)c2)ncn1 [CBK103665] | 85.1% |
| CC(C)Nc1nc2ccccc2nc1SCCc1ccncc1 [CBK103670] | 87.8% |
| CC(C)CSc1nccnc1N1CCCC1 [CBK103683] | 97.7% |
| c1ccc(OCCSc2nc3ccccc3nc2N2CCCC2)cc1 [CBK103694] | 102% |
| c1ccc2nc(N3CCCC3)c(SCCc3cnccn3)nc2c1 [CBK103695] | 106% |
| CC(=O)NCCSc1nc2ccccc2nc1N1CCCC1 [CBK103696] | 99% |
| Clc1cc2nc(SCCc3cnccn3)c(N3CCCC3)nc2cc1Cl [CBK103700] | 93.1% |
| CC(=O)NCCSc1nc2cc(Cl)c(Cl)cc2nc1N1CCCC1 [CBK103701] | 96.3% |
| FC(F)(F)c1ccc(SCc2ccc(Cl)c(Cl)c2)nc1 [CBK103713] | 95.3% |
| FC(F)(F)c1cccc(SCCc2ccccn2)n1 [CBK103719] | 97.3% |
| FC(F)(F)c1ccnc(SCc2ccc(Cl)c(Cl)c2)n1 [CBK103723] | 85.6% |
| FC(F)(F)c1nc2ccccc2nc1SCc1cccs1 [CBK103728] | 105% |
| FC(F)(F)c1nc2ccccc2nc1SCCc1ccccn1 [CBK103731] | 109% |
| FC(F)(F)c1nc2ccccc2nc1SCc1ccccc1 [CBK103732] | 87% |
| COc1ccc2c(c1)C1(Nc3ccccc3C(=O)N1c1ccccc1)C(=O)N2 (stereo not drawn) [CBK103747] | 94.1% |
| Cc1cccc(C)c1N1C(=O)c2ccccc2NC12C(=O)Nc1ccc([N+](=O)[O-])cc12 (stereo not drawn) [CBK103749] | 80.6% |

— PMC12040169 (PLOS Biology, 2025)
